Assay results as given in US7109370B2, “Substituted phenylketoenols” (Bayer Aktiengesellschaft, priority 1997, dated 2006).

Key:
Assay type in all cases: in vivo
[1] = system: greenhouse red spider mite Tetranychus urticae; assay: Tetranychus test (OP-resistant/dip treatment); details: after 14 days, infested bean plants dipped
Description: Tetranychus Test (OP-Resistant/Dip Treatment)
(§1) To produce a suitable preparation of active compound, 1 part by weight of active compound is mixed with the stated amount of solvent and the stated amount of emulsifier, and the concentrate is diluted with water to the desired concentration.
Bean plants (Phaseolus vulgaris) which are heavily infested by all stages of the greenhouse red spider mite Tetranychus urticae are dipped into a preparation of active compound of the desired concentration.
After the desired period of time, the kill in % is determined. 100% means that all spider mites have been killed; 0% means that none of the spider mites have been killed.

[2] = system: larvae of the mustard beetle (Phaedon cochleariae); assay: Phaedon larvae test (dipped cabbage leaves); details: active compound concentration 0.1%, after 7 days
Description: Phaedon Larvae Test [table] To produce a suitable preparation of active compound, 1 part by weight of active compound is mixed with the stated amount of solvent and the stated amount of emulsifier, and the concentrate is diluted with water to the desired concentration. Cabbage leaves (Brassica oleracea) are treated by being dipped into the preparation of active compound of the desired concentration and are populated with larvae of the mustard beetle (Phaedon cochleariae) while the leaves are still moist.

[3] = system: green rice leaf hoppers (Nephotettix cincticeps); assay: Nephotettix test (dipped rice seedlings); details: active compound concentration 0.1%, after 6 days
Description: as §1
Rice seedlings (Oryzae sativa) are treated by being dipped into the preparation of active compound of the desired concentration and are populated with green rice leaf hoppers (Nephotettix cincticeps) while the seedlings are still moist.
After the desired period of time, the kill in % is determined. 100% means that all leaf hoppers have been killed; […] means that none of the leaf hoppers have been killed.

[4] = system: peach aphids (Myzus persicae); assay: Myzus test (dipped cabbage leaves); details: active compound concentration 0.1%; after 6 days; infested cabbage leaves dipped
Description: as §1
Cabbage leaves (Brassica oleracea) which are heavily infested by peach aphids (Myzus persicae) are treated by being dipped into the preparation of active compound of the desired concentration.
After the desired period of time, the kill in % is determined. 100% means that all aphids have been killed; 0% means that none of the aphids have been killed.

Myzus persicae = assay: Critical concentration test/root-systemic action, Myzus persicae; details: 20 ppm active compound in soil; peppers; populated after 7 days, evaluated after a further 6 days
Description: Critical Concentration Test/Root-systemic Action
as §1
(§2) The preparation of active compound is intimately mixed with soil. The concentration of the active compound in the preparation is of practically no importance here, only the amount by weight of active compound per unit volume of soil, which is given in ppm (=mg/l), being decisive. The treated soil is transferred into pots and these are planted with peppers at the cotyledon stage. The active compound can in this way be taken up from the soil by the roots of the plants and be transported into the leaves.
(§3) After a further 6 days, evaluation is carried out by counting or estimating the dead animals. The root-systemic action of the active compound is deduced from the mortality figures. It is 100% if all the test animals have been killed and 0% if just as many test insects are still alive as in the case of the untreated control.

[5] = system: caterpillars of the owlet moth (Spodoptera frugiperda); assay: Spodoptera frugiperda test (dipped cabbage leaves); details: active compound concentration 0.1%, after 7 days
Description: Spodoptera frugiperda Test
as §1
Cabbage leaves (Brassica oleracea) are treated by being dipped into the preparation of active compound of the desired concentration and are populated with caterpillars of the owlet moth (Spodoptera frugiperda) while the leaves are still moist.
After the desired period of time, the kill in % is determined. 100% means that all caterpillars have been killed; 0% means that none of the caterpillars have been killed.

Aphis fabae = assay: Critical concentration test/root-systemic action, Aphis fabae; details: soil, read-out: root-systemic effect (mortality)
Description: Critical Concentration Test/Root-Systemic Action
as §1
as §2, with “pregerminated broad beans.” for “peppers at the cotyledon stage.”
as §3

[6] = active compound concentration 0.1%
[7] = active compound concentration 0.02%

Structure (SMILES): Cc1ccc(C2=C(O)C3(CCOC(C)C3)NC2=O)c(C)c1 (single isomer, unassigned) [I-a-4]
- effect (kill in %) [1, 6]: 100%

Structure (SMILES): Cc1ccc(C2=C(O)C3(CCOC(C)C3)NC2=O)c(Cl)c1 (single isomer, unassigned) [I-a-7]
- effect (kill in %) [1, 6]: 100%
- kill in % [2]: 100%
- kill in % [3]: 100%

Structure (SMILES): Cc1cc(Cl)cc(Cl)c1C1=C(O)C2(CCOC(C)C2)NC1=O (single isomer, unassigned) [I-a-8]
- kill in % [2]: 100%

Structure (SMILES): Cc1cc(Cl)c(C2=C(O)C3(CCOC(C)C3)NC2=O)c(Cl)c1 (single isomer, unassigned) [I-a-9]
- effect (kill in %) [1, 6]: 100%
- kill in % [4]: 100%

Structure (SMILES): Cc1cc(C)c(C2=C(O)C3(CCOC(C)C3)NC2=O)c(C)c1C (single isomer, unassigned) [I-a-10]
- kill in % [4]: 100%

Structure (SMILES): Cc1cc(C#N)cc(C)c1C1=C(O)C2(CCOC(C)C2)NC1=O (single isomer, unassigned) [I-a-12]
- kill in % [4]: 100%

Structure (SMILES): CC1CC2(CCO1)NC(=O)C(c1ccc(Br)cc1Cl)=C2O (single isomer, unassigned) [I-a-15]
- kill in % [4]: 100%

Structure (SMILES): Cc1cc(Cl)cc(C)c1C1=C(O)C2(CCOC(C)C2)NC1=O (single isomer, unassigned) [I-a-16]
- kill in % [4]: 100%
- root-systemic effect (mortality) (Myzus persicae): 100%

Structure (SMILES): Cc1cc(Br)cc(C)c1C1=C(O)C2(CCOC(C)C2)NC1=O (single isomer, unassigned) [I-a-18]
- kill in % [4]: 100%

Structure (SMILES): Cc1cc(Cl)cc(Br)c1C1=C(O)C2(CCOC(C)C2)NC1=O (single isomer, unassigned) [I-a-19]
- kill in % [4]: 100%

Structure (SMILES): Cc1ccc(C)c(C2=C(O)C3(CCOC(C)C3)NC2=O)c1 (single isomer, unassigned) [I-a-20]
- kill in % [5]: 100%
- kill in % [4]: 100%

Structure (SMILES): CCc1cc(Br)c(C2=C(O)C3(CCOC(C)C3)NC2=O)c(Br)c1 (single isomer, unassigned) [I-a-21]
- kill in % [4]: 100%

Structure (SMILES): CCc1ccc(C2=C(O)C3(CCOC(C)C3)NC2=O)c(Cl)c1 (single isomer, unassigned) [I-a-22]
- kill in % [3]: 100%

Structure (SMILES): CC(=O)OC1=C(c2c(C)cc(C)cc2C)C(=O)NC12CCOC(C)C2 (single isomer, unassigned) [I-b-2]
- effect (kill in %) [1, 6]: 100%
- kill in % [3]: 100%

Structure (SMILES): Cc1cc(C)c(C2=C(OC(=O)C(C)C)C3(CCOC(C)C3)NC2=O)c(C)c1 (single isomer, unassigned) [I-b-3]
- effect (kill in %) [1, 6]: 100%

Structure (SMILES): Cc1ccc(C2=C(OC(=O)C(C)C)C3(CCOC(C)C3)NC2=O)c(C)c1 (single isomer, unassigned) [I-b-4]
- effect (kill in %) [1, 6]: 100%
- kill in % [2]: 100%
- kill in % [3]: 100%

Structure (SMILES): CC(=O)OC1=C(c2c(C)cc(C)cc2C)C(=O)NC12CCOC(C)C2 (single isomer, unassigned) [I-b-5]
- kill in % [3]: 100%

Structure (SMILES): CC(=O)OC1=C(c2ccc(C)cc2C)C(=O)NC12CCOC(C)C2 (single isomer, unassigned) [I-b-6]
- kill in % [3]: 100%

Structure (SMILES): Cc1ccc(C2=C(OC(=O)C(C)C)C3(CCOC(C)C3)NC2=O)c(C)c1 (single isomer, unassigned) [I-b-7]
- effect (kill in %) [1, 6]: 100%
- kill in % [3]: 100%

Structure (SMILES): Cc1ccc(C2=C(OC(=O)C(C)C)C3(CCOC(C)C3)NC2=O)c(Cl)c1 (single isomer, unassigned) [I-b-8]
- effect (kill in %) [1, 6]: 100%
- kill in % [2]: 100%
- kill in % [3]: 100%

Structure (SMILES): Cc1cc(C)c(C2=C(OC(=O)C(C)C)C3(CCOC(C)C3)NC2=O)c(C)c1C (single isomer, unassigned) [I-b-11]
- kill in % [3]: 100%

Structure (SMILES): CC1CC2(CCO1)NC(=O)C(c1ccc(Br)cc1Cl)=C2OC(=O)C(C)C (single isomer, unassigned) [I-b-15]
- effect (kill in %) [1, 7]: 100%

Structure (SMILES): CC1CC2(CCO1)NC(=O)C(c1ccc(Br)cc1Cl)=C2OC(=O)CC(C)(C)C (single isomer, unassigned) [I-b-16]
- effect (kill in %) [1, 7]: 100%

Structure (SMILES): Cc1cc(Cl)ccc1C1=C(OC(=O)C(C)C)C2(CCOC(C)C2)NC1=O (single isomer, unassigned) [I-b-17]
- effect (kill in %) [1, 7]: 100%
- kill in % [3]: 100%
- kill in % [4]: 100%

Structure (SMILES): CCc1ccc(C2=C(OC(=O)C(C)C)C3(CCOC(C)C3)NC2=O)c(Cl)c1 (single isomer, unassigned) [I-b-22]
- effect (kill in %) [1, 7]: 100%
- kill in % [2]: 100%
- kill in % [3]: 100%

Structure (SMILES): CCc1ccc(C2=C(OC(=O)c3cccs3)C3(CCOC(C)C3)NC2=O)c(Cl)c1 (single isomer, unassigned) [I-b-23]
- kill in % [2]: 100%
- kill in % [3]: 100%

Structure (SMILES): Cc1cc(C)c(C2=C(O)C3(CCOC(C)C3)NC2=O)c(C)c1 (centres unmarked) [I-a-1]
- mortality at 20 ppm (Aphis fabae): 100%

Structure (SMILES): Cc1cc(C)c(C2=C(OC(=O)C(C)C)C3(CCOC(C)C3)NC2=O)c(C)c1 (centres unmarked) [I-b-1]
- mortality at 20 ppm (Aphis fabae): 100%
- kill in % [3]: 100%

Structure (SMILES): Cc1cc(Cl)cc(C)c1C1=C(OC(=O)C(C)C)C2(CCOC(C)C2)NC1=O (centres unmarked) [I-b-25]
- root-systemic effect (mortality) (Myzus persicae): 100%

Structure (SMILES): CCOC(=O)OC1=C(c2c(C)cc(C)cc2C)C(=O)NC12CCOC(C)C2 (centres unmarked) [I-c-1]
- effect (kill in %) [1, 6]: 100%
- mortality at 20 ppm (Aphis fabae): 100%
- kill in % [3]: 100%

Structure (SMILES): CCOC(=O)OC1=C(c2ccc(C)cc2C)C(=O)NC12CCOC(C)C2 (centres unmarked) [I-c-3]
- effect (kill in %) [1, 6]: 100%
- kill in % [2]: 100%
- kill in % [3]: 100%
- kill in % [5]: 100%

Structure (SMILES): CCOC(=O)OC1=C(c2ccc(C)cc2C)C(=O)NC12CCOC(C)C2 (centres unmarked) [I-c-4]
- effect (kill in %) [1, 6]: 100%
- kill in % [3]: 100%

Structure (SMILES): CCOC(=O)OC1=C(c2c(C)cc(C)c(C)c2C)C(=O)NC12CCOC(C)C2 (centres unmarked) [I-c-5]
- kill in % [3]: 100%

Structure (SMILES): CCOC(=O)OC1=C(c2cc(C)c(C)cc2C)C(=O)NC12CCOC(C)C2 (centres unmarked) [I-c-7]
- kill in % [3]: 100%

Structure (SMILES): CCOC(=O)OC1=C(c2ccc(Br)cc2Cl)C(=O)NC12CCOC(C)C2 (centres unmarked) [I-c-8]
- kill in % [4]: 100%

Structure (SMILES): CCOC(=O)OC1=C(c2c(C)cc(Br)cc2C)C(=O)NC12CCOC(C)C2 (centres unmarked) [I-c-11]
- kill in % [3]: 100%
- kill in % [4]: 100%

Structure (SMILES): CCOC(=O)OC1=C(c2ccc(Cl)cc2Cl)C(=O)NC12CCOC(C)C2 (centres unmarked) [I-c-12]
- kill in % [4]: 100%

Structure (SMILES): CCOC(=O)OC1=C(c2ccc(CC)cc2Cl)C(=O)NC12CCOC(C)C2 (centres unmarked) [I-c-13]
- effect (kill in %) [1, 7]: 100%
- kill in % [2]: 100%
- kill in % [5]: 100%

Structure (SMILES): CCOC(=O)OC1=C(c2cc(C)ccc2C)C(=O)NC12CCOC(C)C2 (centres unmarked) [I-c-15]
- kill in % [5]: 100%
